Positions of bridges follow the written chain, without caps; N, C: chain ends. Residues, ends and D or L forms follow the SMILES beside them. *: point of attachment. DOTA = O=C(O)CN1CCN(CC(=O)O)CCN(CC(=O)*)CCN(CC(=O)O)CC1; AEEA = NCCOCCOCC(=O)O
Columns and labels:
[1] = system: rats with skin/muscle inflammation (turpentine oil); assay type: in vivo, rat; conditions: rat, in vivo, iv
Method: Rats were divided into two groups with Group 1 being intravenously (i.v.) given ^68Ga-DOTA-Siglec-9 (16 ± 2.9 MBq, n = 8) and Group 2 ^18F-FDR-Siglec-9 (18 ± 5.1 MBq, n = 8). A 60 min dynamic PET acquisition was performed on a High Resolution Research Tomograph (HRRT; Siemens Medical Solutions, Knoxville, TN, USA). The PET data were reconstructed into 5 × 60 s and 11 × 300 s frames using an ordered-subsets expectation maximization 3D algorithm (OSEM3D). Quantitative PET image analysis was performed by defining regions of interest (ROIs) within the inflamed area (on the left foreleg), control area (on the right foreleg), kidneys, lungs, heart, liver, and urinary bladder using […] 2.8 software (Turku PET Centre). Results were expressed as standardized uptake values (SUV) and time-activity curves. SUV was calculated as a ratio of tissue radioactivity concentration (Bq/mL) and given radioactivity dose (Bq) divided by animal's body weight.

[2] = in vivo; conditions: Sprague-Dawley, rat, iv, total radioactivity, Ex vivo biodistribution, SD
Source text: Twenty-four hours before the PET studies, Sprague-Dawley rats (weight, 350 ± 22 g; n = 16) were subcutaneously injected with turpentine oil (Sigma-Aldrich) to induce focal acute, sterile inflammation [12]. Before the injection, rats were shaved on the both forelegs. Inflamed area on the left foreleg contained both skin and muscle. The intact, contralateral side (right foreleg) was used as a control.
After PET imaging, rats were sacrificed and various tissues were excised and weighed, and their radioactivity levels were measured with a gamma counter (1480 Wizard 3′′, PerkinElmer, Turku, Finland). The ex vivo biodistribution results were expressed as a percentage of the injected radioactivity dose per gram of tissue (% ID/g) and target-to-background ratio.

[3] = SD
Method: Absorbed doses of ^68Ga-DOTA-Siglec-9 and ^18F-FDR-Siglec-9 were calculated with the OLINDA/EXM version 1.0 software (organ level internal dose assessment and exponential modeling; Vanderbilt University, Nashville, TN, USA), which applies the MIRD schema (developed by the Medical Internal Radiation Dose committee of the Society of Nuclear Medicine) for radiation dose calculations in internal exposure. The software includes radionuclide information and selection of human body phantoms. The residence times derived from the rat data were integrated as the area under the time-activity curve. The residence times were converted into corresponding human values by multiplication with a factor to scale the organ and body weights: (WBody,rat/WOrgan,rat)×(WOrgan,human/WBody,human), where WBody,rat and WBody,human are the body weights of rat and human (a 70-kg male), respectively; and WOrgan,rat and WOrgan,human are the organ weights of rat and human (organ weights for a 70 kg male), respectively [14].

[4] = system: LDLR^−/−ApoB^100/100 atherosclerotic mice; design: method as in PMID 27731409; conditions: mouse, in vivo; cited from earlier work

Structure (SMILES): CC(C)C[C@@H]1NC(=O)CNC(=O)[C@H](CCCNC(=N)N)NC(=O)[C@H](Cc2c[nH]c3ccccc23)NC(=O)[C@H](CO)NC(=O)[C@H](CC(C)C)NC(=O)[C@H](CO)NC(=O)[C@H](CC(C)C)NC(=O)[C@H](CCCNC(=N)N)NC(=O)[C@H](C)NC(=O)[C@@H](NC(=O)COCCOCCNC(=O)CN2CCN(CC(=O)O)CCN(CC(=O)O)CCN(CC(=O)O)CC2)CSSC[C@@H](C(=O)N2CCC[C@H]2C(=O)N[C@@H](CO)C(=O)N[C@@H](CCCCN)C(=O)O)NC(=O)[C@H](CC(C)C)NC(=O)[C@H]([C@@H](C)O)NC1=O [^68Ga-DOTA-Siglec-9, metal not drawn] ({DOTA-AEEA}-CARLSLSWRGLTLCPSK-OH; disulfide 1-14)
- time of peak uptake in the inflamed area after the i.v. bolus injection [1]: about 10 min
- tissue uptake at 1 h ([2]; Adipose tissue, BAT): 0.024 ± 0.026 %ID/g
- tissue uptake at 1 h ([2]; Adipose tissue, WAT): 0.027 ± 0.014 %ID/g
- tissue uptake at 1 h ([2]; Blood): 0.099 ± 0.04 %ID/g
- tissue uptake at 1 h ([2]; Bone (femoral)): 0.02 ± 0.0089 %ID/g
- tissue uptake at 1 h ([2]; Bone marrow): 0.039 ± 0.012 %ID/g
- tissue uptake at 1 h ([2]; Brain): 0.0062 ± 0.0049 %ID/g
- tissue uptake at 1 h ([2]; Control area): 0.051 ± 0.0063 %ID/g
- tissue uptake at 1 h ([2]; Heart): 0.03 ± 0.011 %ID/g
- tissue uptake at 1 h ([2]; Inflamed area): 0.12 ± 0.032 %ID/g
- tissue uptake at 1 h ([2]; Kidneys): 2.8 ± 1.8 %ID/g
- tissue uptake at 1 h ([2]; Liver): 0.32 ± 0.16 %ID/g
- tissue uptake at 1 h ([2]; Lungs): 0.079 ± 0.035 %ID/g
- tissue uptake at 1 h ([2]; Muscle): 0.019 ± 0.0091 %ID/g
- tissue uptake at 1 h ([2]; Pancreas): 0.024 ± 0.0024 %ID/g
- tissue uptake at 1 h ([2]; Plasma): 0.13 ± 0.015 %ID/g
- tissue uptake at 1 h ([2]; Small intestine): 0.06 ± 0.016 %ID/g
- tissue uptake at 1 h ([2]; Spleen): 0.19 ± 0.11 %ID/g
- tissue uptake at 1 h ([2]; male, Testis): 0.035 ± 0.031 %ID/g
- Human dose equivalent estimate, Adrenals [3]: 0.014 ± 0.0012 mSv/MBq
- Human dose equivalent estimate, Brain [3]: 0.012 ± 0.00077 mSv/MBq
- Human dose equivalent estimate, Breasts [3]: 0.011 ± 0.00064 mSv/MBq
- Human dose equivalent estimate, Gallbladder wall [3]: 0.014 ± 0.00065 mSv/MBq
- Human dose equivalent estimate, Heart wall [3]: 0.0083 ± 0.0010 mSv/MBq
- Human dose equivalent estimate, Kidneys [3]: 0.15 ± 0.12 mSv/MBq
- Human dose equivalent estimate, Liver [3]: 0.012 ± 0.0024 mSv/MBq
- Human dose equivalent estimate, Lower large intestine wall [3]: 0.015 ± 0.00077 mSv/MBq
- Human dose equivalent estimate, Lungs [3]: 0.0044 ± 0.00054 mSv/MBq
- Human dose equivalent estimate, Muscle [3]: 0.0050 ± 0.00018 mSv/MBq
- Human dose equivalent estimate, Osteogenic cells [3]: 0.017 ± 0.00094 mSv/MBq
- Human dose equivalent estimate, Ovaries [3]: 0.015 ± 0.00064 mSv/MBq
- Human dose equivalent estimate, Pancreas [3]: 0.014 ± 0.00085 mSv/MBq
- Human dose equivalent estimate, Red marrow [3]: 0.010 ± 0.00037 mSv/MBq
- Human dose equivalent estimate, Skin [3]: 0.010 ± 0.00054 mSv/MBq
- Human dose equivalent estimate, Small intestine [3]: 0.014 ± 0.00047 mSv/MBq
- Human dose equivalent estimate, Spleen [3]: 0.014 ± 0.0011 mSv/MBq
- Human dose equivalent estimate, Stomach wall [3]: 0.013 ± 0.00065 mSv/MBq
- Human dose equivalent estimate, Testes [3]: 0.013 ± 0.00062 mSv/MBq
- Human dose equivalent estimate, Thymus [3]: 0.011 ± 0.00068 mSv/MBq
- Human dose equivalent estimate, Thyroid [3]: 0.011 ± 0.00072 mSv/MBq
- Human dose equivalent estimate, Total body [3]: 0.013 ± 0.00041 mSv/MBq
- Human dose equivalent estimate, Upper large intestine wall [3]: 0.014 ± 0.00046 mSv/MBq
- Human dose equivalent estimate, Urinary bladder wall [3]: 0.20 ± 0.087 mSv/MBq
- Human dose equivalent estimate, Uterus [3]: 0.018 ± 0.0017 mSv/MBq
- Human effective dose estimate [3]: 0.024 ± 0.0041 mSv/MBq
- Normalized number of disintegrations, Heart wall [3]: 0.0029 ± 0.00072 h
- Normalized number of disintegrations, Kidneys [3]: 0.093 ± 0.081 h
- Normalized number of disintegrations, Liver [3]: 0.033 ± 0.0097 h
- Normalized number of disintegrations, Lungs [3]: 0.0026 ± 0.0011 h
- Normalized number of disintegrations, Muscle [3]: 0.054 ± 0.0088 h
- Normalized number of disintegrations, Total body [3]: 1.3 ± 0.085 h
- Normalized number of disintegrations, Urinary bladder wall [3]: 0.17 ± 0.076 h
- aortic uptake, previously reported [4]: 0.83 ± 0.33 % ID/g
